Earlier results on 1 compound are cited in US20240197636A1, “TISSUE-SPECIFIC NUCLEIC ACID DELIVERY BY MIXED CATIONIC LIPID PARTICLES” (OMEGA THERAPEUTICS, INC., priority 2021, published 2024).

Structures are written as SMILES.

For `CCCCC/C=C\C/C=C\CCCCCCCCC(CCCCCCCC/C=C\C/C=C\CCCCC)OC(=O)CCCN(C)C` [MC3, (6Z,9Z,28Z,31Z)-heptatriaconta-6,9,28,31-tetraen-19-yl 4-(dimethylamino) butanoate], the pKa (as a rule, the pH at which an ionisable group is half protonated) is recorded as 6.4.
